The values below come from US6646003B2, “Method of treating ocular inflammatory and angiogenesis-related disorders of the posterior segment of the eye using an amide derivative of flurbiprofen or ketorolac” (Alcon, Inc., priority 2001, dated 2003).

Molecules are shown by their SMILES.

Series [1] is described as follows: in vitro metabolism: hydrolytic conversion of NSAID amides to free carboxylic acids. The note with it: rabbit iris/ciliary body, 36° C.; for rate of drug hydrolysis by the ICB: GBR buffer pH 7.6, four to six hours; for hydrolytic bioactivation by the ICB (result in words): GBR buffer pH 7.6. The class given is in vitro ADME, NZA rabbit. The protocol:
Freshly dissected iris/ciliary body from the NZA rabbit was incubated at 36° C. for a period of four to six hours in 0.5 ml of GBR buffer (pH 7.6) supplemented with amide derivatives of the indicated NSAIDs. Samples of 0.1 ml were removed for HPLC analysis to monitor the hydrolytic conversion of NSAID amides to free carboxylic acids.

Series [2] concerns paracentesis-induced breakdown of the BAB. The series is described as follows: inhibition of trauma-induced ocular inflammation (rabbit model of paracentesis). The series is classed as in vivo. As to conditions: for inhibition of paracentesis-induced breakdown of the BAB: single 50 μL topical ocular drop of 0.1% solution/suspension 45 minutes prior to paracentesis, rabbit; for topical ocular in vivo antiinflammatory activity (result in words): 0.1% topical ocular dose, rabbit paracentesis model. The protocol: Effects of a single prophylactic topical ocular dose of the tested compounds were examined in a rabbit model of paracentesis (Graff, et al., Ocular Immunol. Inflamm., 6:227-238 (1998)). Briefly, a single 50 μL drop of a 0.1% drug solution/suspension was administered topically onto the eye 45 minutes prior to paracentesis and removal of ˜150 μL of aqueous humor. Thirty minutes after execution of paracentesis aqueous humor was removed (˜100 μL) for analysis. Both pre- and post-paracentesis samples were assayed for protein and PGE2 content.

Series [3] is described as follows: in vitro corneal drug permeation (perfusion chamber, HPLC). The series is classed as in vitro ADME, NZA rabbits. The note with it: continued drug perfusion of the corneal epithelium, excised rabbit cornea, GBR buffer. Here is the method:
Freshly excised corneas were obtained from 6-week old NZA rabbits (1.3-1.5 kg). Corneas were mounted in a modified Lucite perfusion chamber and perfused with glutathione-supplemented bicarbonated Ringer (GBR) buffer as previously described^1. Drug concentrations in GBR buffer were as indicated (FIG. 1), with the corneal epithelial cell layer facing the drug containing donor compartment. The final volume of the donor and receiver side of the perfusion chamber was 7.0 mL. Samples of 0.1 mL were withdrawn from both chambers at the beginning of the experiment and at 20 to 30 minute intervals thereafter through six hours. Samples were mixed with an equal volume of methanol and immediately subjected to HPLC analysis. HPLC analysis was carried out on a 25 cm×4.6 mm I.D. Spherosorb RP-18, 10μ column at a flow rate of 2.0 ml/min. The column effluent was monitored with a flow monitor at a wavelength of 230 nm. Elution of NSAID free acids and amides was accomplished with an eluant mixture composed of methanol:water:phosphoric acid (60/40/1 (v/v/v)) (pH 3.0). The eluant mixture was changed to methanol:water:phosphoric acid (60/40/1 (v/v/v)) (pH 3.0) when suprofen and suprofen amide were subjected to HPLC analysis.

`NC(=O)Cc1cccc(C(=O)c2ccccc2)c1N` [amide derivative of amfenac]: the “rate of drug hydrolysis by the ICB” value in series [1] amounted to 0.69 nM/min/mg tissue. The “inhibition of paracentesis-induced breakdown of the BAB” value (“inhibition” below) in series [2] worked out at 64%. Further, the permeation coefficient in series [3] is given as 7.4 cm/min^−1×10^−5.
Consider `NC(=O)Cc1cccc(C(=O)c2ccc(Br)cc2)c1N` [amide derivative of bromfenac], for which, in series [1], the “rate of drug hydrolysis by the ICB” value is reported as 0.17 nM/min/mg tissue.
Consider `NC(=O)Cc1ccccc1Nc1c(Cl)cccc1Cl` [amide derivative of diclofenac], for which the “hydrolytic bioactivation by the ICB (result in words)” value (“hydrolytic bioactivation by the ICB” below) in series [1] is reported as “resistant to hydrolytic bioactivation”. The “topical ocular in vivo antiinflammatory activity (result in words)” value in series [2] was “no antiinflammatory effects were detectable”. In series [3], this compound showed a permeation coefficient of 7.8 cm/min^−1×10^−5.
For the compound `CC(C(N)=O)c1ccc(-c2ccccc2)c(F)c1` (stereo not drawn) [amide derivative of flurbiprofen, 2-(3-fluoro-4-phenyl)-propionamide], the “rate of drug hydrolysis by the ICB” value in series [1] is recorded as 0.29 nM/min/mg tissue. Further, in series [2], the “inhibition” value is 29%.
Regarding `NC(=O)C1CCn2c(C(=O)c3ccccc3)ccc21` (stereo not drawn) [amide derivative of ketorolac, 5-benzoyl-2,3-dihydro-1H-pyrrolizine-1-carboxamide], in series [1], the “rate of drug hydrolysis by the ICB” value was found to be 2.42 nM/min/mg tissue.
On to `CC(C(N)=O)c1ccc(C(=O)c2cccs2)cc1` (stereo not drawn) [amide derivative of suprofen, α-methyl-4-(2-thienylcarbonyl)-benzeneacetamide], for which the “hydrolytic bioactivation by the ICB” value in series [1] is given as “resistant to hydrolytic bioactivation”.
For `CN(C)C(=O)Cc1cccc(C(=O)c2ccc(Br)cc2)c1N` [dimethyl amide derivative of bromfenac, N,N-dimethyl 2-amino-3-(4-bromobenzoyl)benzeneacetamide], the “hydrolytic bioactivation by the ICB” value in series [1] was “resistant to hydrolytic bioactivation”. The “topical ocular in vivo antiinflammatory activity (result in words)” value in series [2] was “no antiinflammatory effects were detectable”.
For `CC(C(=O)O)c1ccc(-c2ccccc2)c(F)c1` (stereo not drawn) [flurbiprofen], the “inhibition” value in series [2] came out at 50%.
With `CNC(=O)Cc1cccc(C(=O)c2ccc(Br)cc2)c1N` [monomethyl amide derivative of bromfenac, N-methyl 2-amino-3-(4-bromobenzoyl)benzeneacetamide], the “rate of drug hydrolysis by the ICB” value in series [1] was found to be 0.16 nM/min/mg tissue.
